Measured values taken from US9663507B1, “Crystallisation of thiamine hydrochloride” (Topchem Pharmaceuticals Limited, priority 2016, dated 2017).
Structures can show the parent of a compound that is named as a salt. Where two headings read alike, the source gives them in different places.

Experiments:
[1] = exposure to humidity, cited from earlier work
[2] = for Related Substances: Chlorothiamine (Impurity C) / Related Substances: Thiamine sulfate ester (Impurity A) / Related Substances: Desmethylthiamine (Impurity B) / Related Substances: Total Impurities: EP 8.6 HPLC Method; for Related Substances: Chlorothiamine (Impurity C) / Related Substances: Thiamine sulfate ester (Impurity A): limit NMT 0.15%; for Related Substances: Desmethylthiamine (Impurity B): limit NMT 0.3%; for Related Substances: Total Impurities: limit NMT 0.5%; for Assay: limit 98.0%-102.0%; for Sulfates: limit EP 8.6 NMT 300 ppm; for Solution S: limit EP 8.6 Practically Clear and Odorless; for Heavy Metals / Appearance: limit Meets EP 8.6; for ID: Chloride / ID: FTIR / Limit of Nitrate: limit Meets USP 39; for Absorbance of Solution: limit USP 39 NMT 0.025 Abs; for Residue on Ignition: limit USP 39 NMT 0.2%; for Water: limit USP 39 NMT 5.0%; for pH: limit USP 39 pH 2.7-3.4
[3] = cited from earlier work
[4] = 36 Months, listed as T111116, hydrochloride monohydrate
[5] = 36 Months, listed as T111201, hydrochloride monohydrate
[6] = 36 Months, listed as T111202, hydrochloride monohydrate
[7] = Time 0, listed as T111116, hydrochloride monohydrate
[8] = Time 0, listed as T111201, hydrochloride monohydrate
[9] = Time 0, listed as T111202, hydrochloride monohydrate

## Cc1ncc(C[n+]2csc(CCO)c2C)c(N)n1 [anhydrous form, Thiamine hydrochloride]
[1]; hydrochloride
  Hygroscopicity: readily absorbs moisture to form the monohydrate and hemihydrate

## Cc1ncc(C[n+]2csc(CCO)c2C)c(N)n1 [Example 1, Thiamine Hydrochloride Hemihydrate]
[1]; Hydrochloride Hemihydrate
  Hygroscopicity: less hygroscopic

## Cc1ncc(C[n+]2csc(CCO)c2C)c(N)n1 [Thiamine hydrochloride monohydrate]
[2]; 36 Months
  Related Substances: Chlorothiamine (Impurity C): <0.05%
  Related Substances: Thiamine sulfate ester (Impurity A): 0.07%
  Sulfates: Complies
  Solution S: Complies
  Heavy Metals: Complies
  ID: Chloride: Complies
  ID: FTIR: Complies
  Limit of Nitrate: Complies
  Residue on Ignition: 0.0%
[2]; [4]
  Related Substances: Desmethylthiamine (Impurity B): 0.07%
  Related Substances: Total Impurities: 0.13%
  Assay: 99.8%
  Absorbance of Solution: 0.004 Abs
  Water: 3.7%
  pH: pH 2.9
[2]; [5]
  Related Substances: Desmethylthiamine (Impurity B): 0.07%
  Related Substances: Total Impurities: 0.14%
  Assay: 99.6%
  Absorbance of Solution: 0.013 Abs
  Water: 2.7%
  pH: pH 3.0
[2]; [6]
  Related Substances: Desmethylthiamine (Impurity B): 0.06%
  Related Substances: Total Impurities: 0.13%
  Assay: 99.1%
  Absorbance of Solution: 0.007 Abs
  Water: 4.0%
  pH: pH 3.1
[2]; 36 Months, sealed foil lined polypropylene bags
  Appearance: Complies
[2]; Time 0
  Related Substances: Chlorothiamine (Impurity C): <0.05%
  Sulfates: Complies
  Solution S: Complies
  Appearance: Complies
  Heavy Metals: Complies
  ID: Chloride: Complies
  ID: FTIR: Complies
  Limit of Nitrate: Complies
  Residue on Ignition: 0.0%
[2]; [7]
  Related Substances: Thiamine sulfate ester (Impurity A): <0.05%
  Related Substances: Desmethylthiamine (Impurity B): <0.05%
  Related Substances: Total Impurities: Complies
  Assay: 99.0%
  Absorbance of Solution: 0.005 Abs
  Water: 3.2%
  pH: pH 3.3
[2]; [8]
  Related Substances: Thiamine sulfate ester (Impurity A): 0.07%
  Related Substances: Desmethylthiamine (Impurity B): 0.07%
  Related Substances: Total Impurities: 0.4%
  Assay: 98.6%
  Absorbance of Solution: 0.008 Abs
  Water: 2.0%
  pH: pH 3.2
[2]; [9]
  Related Substances: Thiamine sulfate ester (Impurity A): 0.06%
  Related Substances: Desmethylthiamine (Impurity B): 0.06%
  Related Substances: Total Impurities: 0.12%
  Assay: 99.2%
  Water: 3.3%
  pH: pH 3.2
[2]; Time 0, unit printed as %
  Absorbance of Solution: 0.007%
[2]; protected from moisture, […], USP or EP testing
  Storage stability: stability up to three years
[1]; hydrochloride monohydrate
  Hygroscopicity: hygroscopic

## Cc1ncc(C[n+]2csc(CCO)c2C)c(N)n1 [Thiamine hydrochloride]
[3]
  Solubility in water: high solubility in water
